Each structure is given as a SMILES string.

The nature of this data set: Non-specific drug binding (NSB) to 96-well plates, drug in phosphate buffer. In kind it is physicochemical. The following applies: time course study on PP and PTFE plates using LC-MS (data not shown). The procedure:
The drug NSB (10 nM drug in phosphate buffer) to other 96-well plates made from different plastics was also tested.

For `CC(=O)O[C@H]1C(=O)[C@@]2(C)[C@H]([C@H](OC(=O)c3ccccc3)[C@]3(O)C[C@H](OC(=O)[C@H](O)[C@@H](NC(=O)c4ccccc4)c4ccccc4)C(C)=C1C3(C)C)[C@]1(OC(C)=O)CO[C@@H]1C[C@@H]2O` [taxol], the “drug NSB, dependence on plate material” value is listed as “independent of plate material”.
`C[C@]12CC[C@H]3[C@@H](CCC4=CC(=O)CC[C@@]43C)[C@@H]1CC[C@@H]2O` [testosterone]: the “drug NSB, dependence on plate material” value is reported as “independent of plate material”.

Source of the values: patent publication US20080193913A1, “Diluent, methods of manufacture and use” (Millipore Corporation, priority 2002, published 2008).
